Ends that are not written are not given here.
Assays:
Assay type in all cases: cell-based
hTNF-α mRNA = test: Knockdown of hTNF-α gene expression by siRNA/peptide complexes in LPS-stimulated human monocytes (branch DNA mRNA); settings: for siRNA Knockdown Activity: 20 nM siRNA, human monocytes
Protocol: Specifically, the ability of siRNA/peptide complexes to modulate expression of the human tumor necrosis factor-α (hTNF-α) gene was assessed. The significance of targeting the hTNF-α gene is that it is implicated in mediating the occurrence or progression of rheumatoid arthritis (RA) when over-expressed in human and other mammalian subjects.
Human monocytes were used as a model system to determine the effect of siRNA/peptide complexes on hTNF-α gene expression. Qneg represents a random siRNA sequence and functioned as the negative control. […] A19S21, 21/21 and LC20 are siRNAs that target hTNF-α mRNA.
Healthy human blood was purchased from Golden West Biologicals (CA), the peripheral blood mononuclear cells (PBMC) were purified from the blood using Ficoll-Pague plus (Amersham) gradient. Human monocytes were then purified from the PBMCs fraction using magnetic microbeads from Miltenyi Biotech. Isolated human monocytes were resuspended in IMDM supplemented with 4 mM glutamine, 10% FBS, 1× non-essential amino acid and 1× pen-strep, and stored at 4 C until use.
In a 96 well flat bottom plate, human monocytes were seeded at 100 K/well/100 μl in OptiMEM medium (Invitrogen). Exemplary polynucleotide delivery-enhancing polypeptides were mixed with 20 nM siRNA at a molar ratio of 1 to 5 in OptiMEM medium at room temperature for 5 minutes. At the end of incubation, FBS was added to the mixture (final 3%), and 50 μl of the mixture was added to the cells. The cells were incubated at 37° C. for 3 hours. After incubation, the cells were transferred to V-bottom plate and pelleted at 1500 rpm for 5 min. The cells were resuspended in growth medium (IMDM with glutamine, non-essential amino acid, and pen-strep). After an overnight incubation, the monocytes were stimulated by application of LPS (Sigma) at 1 ng/ml for 3 hours to increase expression of TNF-α expression levels. After induction by LPS, cells were collected as above for mRNA quantification, and supernatant was saved for protein quantification if desired.
For mRNA measurement, branch DNA technology from Genospectra (CA) was used according to manufacturer's specification. To quantitate mRNA level in the cells, both house keeping gene (cypB) and target gene (TNF-α) mRNA were measured, and the reading for TNF-α was normalized with cypB to obtain relative luminescence unit. […]

[1] = tested on: mouse tail fibroblast (MTF) cells; test: Polypeptide mediated siRNA delivery screen (Cy5-siRNA cell-uptake and MFI), Example 17; settings: Cy5-conjugated siRNA
Protocol: siRNA uptake by cells was assessed by flow cytometry (refer to Example 2 for details). Uptake was expressed as a percentage calculated by dividing the number of cells containing Cy5-conjugated siRNA by the total number of transfected and untransfected cells in culture. Mean Fluorescence Intensity (MFI) was measured by flow cytometry and determined the amount of Cy5-conjugated siRNA found within cells. The MFI value directly correlates with the amount of Cy5-conjugated siRNA within the cell, thus, a higher MFI value indicates a greater number of Cy5-conjugated siRNA within the cells.

human monocytes = test: Cytotoxicity with human monocytes

Substance	hTNF-α mRNA knockdown relative to the Qneg/PN680 control complex, in words (hTNF-α mRNA; any of the hTNF-α specific siRNAs at a 1:5 ratio)	siRNA Knockdown Activity (hTNF-α mRNA; siRNA 21/21 MD8, siRNA:Peptide Ratio 1:5)	siRNA Knockdown Activity (hTNF-α mRNA; siRNA 21/21 MD8, siRNA:Peptide Ratio 1:10)	siRNA Knockdown Activity (hTNF-α mRNA; siRNA A19S21 MD8, siRNA:Peptide Ratio 1:5)	siRNA Knockdown Activity (hTNF-α mRNA; siRNA A19S21 MD8, siRNA:Peptide Ratio 1:10)	siRNA Knockdown Activity (hTNF-α mRNA; siRNA LC20, siRNA:Peptide Ratio 1:5)	siRNA Knockdown Activity (hTNF-α mRNA; siRNA LC20, siRNA:Peptide Ratio 1:10)	MFI measurement relative to the PN643 positive control, in words [1]	cytotoxicity effects (human monocytes)
RSVCRQIKICRRRGGCYYKCTNRPY-amide (RSVCRQIKICRRRGGCYYKCTNRPY-NH2; cysteine pairing not given here) [PN680, Androctonin]	significant knockdown activity	+ (the peptide/siRNA complex had knockdown activity of 80% of the Qneg negative control siRNA (20% reduction in mRNA levels compared to the Qneg negative control))	+/− (the peptide/siRNA complex had a knockdown activity of approximately 90% of the Qneg negative control siRNA (10% reduction in mRNA levels compared to the Qneg negative control))	+ (the peptide/siRNA complex had knockdown activity of 80% of the Qneg negative control siRNA (20% reduction in mRNA levels compared to the Qneg negative control))	+/− (the peptide/siRNA complex had a knockdown activity of approximately 90% of the Qneg negative control siRNA (10% reduction in mRNA levels compared to the Qneg negative control))	+ (the peptide/siRNA complex had knockdown activity of 80% of the Qneg negative control siRNA (20% reduction in mRNA levels compared to the Qneg negative control))	+ (the peptide/siRNA complex had knockdown activity of 80% of the Qneg negative control siRNA (20% reduction in mRNA levels compared to the Qneg negative control))	comparable	–
RKESYSVYVYKVLKQ-NH2 [PN766]	–	–	–	–	–	–	–	–	No cytotoxicity effects were observed

Source: US20130072424A1, “COMPOUNDS AND METHODS FOR PEPTIDE RIBONUCLEIC ACID CONDENSATE PARTICLES FOR RNA THERAPEUTICS” (MARINA BIOTECH, INC., priority 2005, published 2013)
